Assay results published in US20100186098A1, “TRANSGENIC ANIMAL MODELS OF PARKINSON'S DISEASE” (CORNELL UNIVERSITY, priority 2007, published 2010).

Experiments:
Type in all cases: in vivo, mouse
Details in all cases: intraperitoneal; L-dopa 2 and 20 mg/kg with benserazide, tested 40 minutes after injection; apomorphine 10 mg/kg, tested 5 minutes after
hR1441G LRRK2 mice [1] = test: Home cage activity test, pharmacological rescue
Experimental: (§1) hR1441G LRRK2 mice and WT littermates were kept in a 12:12 hour light/dark cycle in a temperature and humidity controlled room. All behavioral tests were conducted in the dark phase after two hours of the light/dark switch. In home cage activity test, hR1441G LRRK2 mice and wild type littermates were video taped in home cage for spontaneous ambulatory activity without any disturbance. In cylinder test, hR1441G LRRK2 mice were individually transferred into a 12 cm diameter cylinder and video taped with a reflective mirror for 5 minutes. Vertical rearing and horizontal limb steps were counted. In open field test, mice were transferred into a 45 cm×45 cm box for 10 minutes, video taped and analyzed by Ethovision, 3.0 from Noldus. The locomotor activity was measured by total distance and the number of tiles that the mice traveled.
(§2) To address whether the loss of movement in hR1441G LRRK2 mice originated from a defect in the dopaminergic system, a pharmacological approach was applied. hR1441G LRRK2 mice and wild type littermates were injected with saline control or methyl L-dopa hydrochloride (Sigma, St. Louis, USA) in 0.9% NaCl with benserazide 6.5 mg/kg (Sigma). Two dosages of methyl L-dopa hydrochloride (2 mg/kg and 20 mg/kg) were tested. 0.3 ml of intraperitoneal injections was administered to each animal. Behavioral testing were performed 40 minutes after the injections. […]

hR1441G LRRK2 mice [2] = test: Open field test, pharmacological rescue
Experimental: as §1, §2

[3] = test system: hR1441G LRRK2 BAC mice (TG); test: Cylinder test (rearing), pharmacological rescue
Experimental: FIGS. 9A-9B illustrate robust locomotor deficit in hR1441G LRRK2 BAC mice was rescued by L-Dopa and apomorphine. Wild type littermates (WT) and hR1441G LRRK2 BAC mice (TG) were tested for 3 min in the cylinder test. Rearing was counted as an indication of motor activity. (9A) An age dependent decline in rearing was detected. At 3, 6 and 10 months of age, WT mice reared an average 50.4±SE2.13, 51.4±SE1.28, 50.2.4±SE2.13 times, while TG mice reared 49.4±SE2.13, […] and zero times respectively. At 6 and 10 months of age, TG mice had significant reductions (P<0.005, P<0.001 respectively). (9B) This robust deficit in TG mice was rescued by 20 mg/kg L-Dopa with […] Benseramide. In saline injection controls, WT and TG mice reared 50.4±SE2.48 and 0.8±SE0.37 in 3 minutes, whereas in L-dopa injection, WT and TG mice reared 47.2±SE1.65 and 28.4±SE1.43.
hR1441G LRRK2 mice and WT littermates were kept in a 12:12 hour light/dark cycle in a temperature and humidity controlled room. All behavioral tests were conducted in the dark phase after two hours of the light/dark switch. […] Vertical rearing and horizontal limb steps were counted. In open field test, mice were transferred into a 45 cm×45 cm box for 10 minutes, video taped and analyzed by Ethovision, 3.0 from Noldus. The locomotor activity was measured by total distance and the number of tiles that the mice traveled. […]

CN1CCc2cccc3c2[C@H]1Cc1ccc(O)c(O)c1-3 [apomorphine]
significantly rescued: Rescue from motor deficits in home cage activities (hR1441G LRRK2 mice [1]) | Rescue from motor deficits in the open field test (hR1441G LRRK2 mice [2]) | Rescue from motor deficits in the cylinder test [3]
